Experiments:
Experiment in all cases: relative viability (nuclei count vs DMSO), 5 days (fraction); higher = more cells survive
Sunitinib = compound: CCN(CC)CCNC(=O)c1c(C)[nH]c(/C=C2\C(=O)Nc3ccc(F)cc32)c1C [Sunitinib]
Summary of the method: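 Hoechst staining, done together with fixation and permeabilisation, marked nuclei for 4× imaging and MetaXpress counting. This followed 5 days without medium change after lung cancer cell lines, kept overnight at 37 °C in 1536-well plates, were pinned with five library-drug doses (not always all listed) spaced by √10 on vehicle-anchored plates. Viability is the ratio of treated-well to vehicle-well nuclei, expressed as a median across plates. Plates passed only at control CV below 25% with at least one doubling.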

Sunitinib + OSI-027 = compound: CCN(CC)CCNC(=O)c1c(C)[nH]c(/C=C2\C(=O)Nc3ccc(F)cc32)c1C [Sunitinib] + COc1cccc2cc(-c3nc([C@H]4CC[C@H](C(=O)O)CC4)n4ncnc(N)c34)[nH]c12 [OSI-027] (partner 0.5 µM)
Summary of the method: (§1)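 Relative viability was taken as the ratio of nuclei in treated wells to nuclei in vehicle wells. Lung cancer cell lines in 1536-well plates received compounds by pin tool one day after seeding, either one drug alone or a fixed anchor-drug dose plus five library-drug doses (not always all listed) in √10 steps. Nuclei were counted on 4× images after 5 days of treatment, and values are medians of duplicate plates.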

Sunitinib + Palbociclib = compound: CCN(CC)CCNC(=O)c1c(C)[nH]c(/C=C2\C(=O)Nc3ccc(F)cc32)c1C [Sunitinib] + CC(=O)c1c(C)c2cnc(Nc3ccc(N4CCNCC4)cn3)nc2n(C2CCCC2)c1=O [Palbociclib] (partner 0.5 µM)
Summary of the method: as §1

Sunitinib + Foretinib = compound: CCN(CC)CCNC(=O)c1c(C)[nH]c(/C=C2\C(=O)Nc3ccc(F)cc32)c1C [Sunitinib] + COc1cc2c(Oc3ccc(NC(=O)C4(C(=O)Nc5ccc(F)cc5)CC4)cc3F)ccnc2cc1OCCCN1CCOCC1 [Foretinib] (partner 0.25 µM)
Summary of the method: as §1

Row | Cell Line | relative viability (Sunitinib; 0.02 µM) | relative viability (Sunitinib; 0.06325 µM) | relative viability (Sunitinib; 0.2 µM) | relative viability (Sunitinib; 2 µM) | relative viability (Sunitinib + OSI-027; first compound 0.02 µM) | relative viability (Sunitinib + OSI-027; first compound 0.06325 µM) | relative viability (Sunitinib + OSI-027; first compound 0.2 µM) | relative viability (Sunitinib + OSI-027; first compound 0.6325 µM) | relative viability (Sunitinib + OSI-027; first compound 2 µM) | relative viability (Sunitinib + Palbociclib; first compound 0.02 µM) | relative viability (Sunitinib + Palbociclib; first compound 0.06325 µM) | relative viability (Sunitinib + Palbociclib; first compound 0.2 µM) | relative viability (Sunitinib + Palbociclib; first compound 0.6325 µM) | relative viability (Sunitinib + Palbociclib; first compound 2 µM) | relative viability (Sunitinib + Foretinib; first compound 0.02 µM) | relative viability (Sunitinib + Foretinib; first compound 0.06325 µM) | relative viability (Sunitinib + Foretinib; first compound 0.2 µM) | relative viability (Sunitinib + Foretinib; first compound 0.6325 µM) | relative viability (Sunitinib + Foretinib; first compound 2 µM) | relative viability (Sunitinib; 0.6325 µM)
1 | HCC-366 | 0.963 | 1.05 | 1.07 | 0.965 | 0.895 | 0.862 | 1.1 | 0.904 | 0.636 | 0.342 | 0.393 | 0.652 | 0.413 | 0.409 | 0.864 | 0.908 | 0.919 | 0.827 | 0.871 | –
2 | HCC-827 | 1.01 | 1.06 | 1.05 | 1.04 | 0.743 | 0.709 | – | 0.76 | 0.826 | 0.487 | 0.506 | 0.542 | 0.478 | 0.534 | 1.05 | 0.958 | 1.04 | 1.03 | 1.07 | 1.05
3 | HOP-62 | 0.95 | 1.07 | 1.13 | 1.06 | 0.763 | 1.01 | – | 0.977 | 0.995 | 0.381 | 0.485 | 0.496 | 0.427 | 0.533 | 0.923 | 1.21 | 1.2 | 1.22 | 1.18 | 1.1
4 | LC-2-ad | 0.945 | 1.01 | 1.09 | 0.781 | – | 0.844 | 0.944 | 0.818 | 0.614 | 0.491 | 0.481 | 0.593 | 0.48 | 0.42 | 0.868 | 0.949 | 0.952 | 0.99 | 0.861 | 1
5 | LCLC-97TM1 | 0.968 | 1.14 | 1.01 | 1.09 | 0.553 | 0.59 | 0.598 | 0.48 | 0.473 | 0.209 | 0.268 | 0.279 | 0.229 | 0.231 | 0.926 | – | 1.13 | 0.991 | 0.926 | 1.02
6 | LCLC-103H | 0.905 | 1.07 | 1.12 | 1.03 | 0.373 | 0.477 | 0.467 | 0.397 | 0.456 | 0.499 | 0.488 | 0.484 | 0.495 | 0.52 | 0.702 | 1.01 | 0.922 | 0.873 | 0.791 | 0.903
7 | LK-2 | 0.936 | 1.02 | 1.22 | 1.01 | 0.175 | 0.257 | 0.189 | 0.2 | 0.194 | 0.563 | – | 0.681 | 0.586 | 0.642 | 1.1 | 1.56 | 1.72 | 1.42 | 1.24 | 0.905
8 | LOU-NH91 | 1.01 | 0.969 | 1 | 0.941 | 0.778 | 0.74 | 0.772 | 0.73 | 0.742 | 0.592 | 0.536 | 0.562 | 0.473 | 0.555 | 0.939 | 0.974 | 1.04 | 0.998 | 0.878 | 0.98
9 | LU99A | 0.84 | 1.1 | 1.04 | 0.901 | 0.289 | 0.297 | 0.287 | 0.329 | 0.317 | 0.338 | 0.473 | 0.417 | 0.433 | 0.442 | 0.731 | 0.894 | 0.931 | 1.01 | 0.91 | 0.938
10 | LXF-289 | 0.949 | 0.986 | 1.04 | 1.01 | 0.759 | 0.964 | 0.863 | 0.913 | 0.961 | 0.599 | 0.621 | 0.597 | 0.619 | 0.603 | 0.979 | 1.02 | 1.02 | 1.03 | 1.1 | 1.02
11 | NCI-H23 | 0.849 | 1.15 | 1.07 | 0.938 | 0.57 | 0.749 | 0.675 | 0.803 | 0.469 | 0.469 | 0.599 | 0.488 | 0.532 | 0.49 | 0.875 | 1.25 | 1.03 | 1.1 | 0.749 | 1.17
12 | NCI-H322M | 0.866 | 1.02 | 1 | 0.892 | 0.53 | 0.582 | 0.656 | 0.624 | 0.549 | 0.454 | 0.48 | 0.479 | 0.461 | 0.497 | 0.906 | – | 1.14 | 1.13 | 0.869 | 0.936
13 | NCI-H596 | 0.952 | 1.15 | – | 0.913 | 0.731 | 0.799 | 0.787 | 0.699 | 0.552 | – | – | – | – | – | 0.688 | 0.949 | 0.779 | 0.849 | 0.649 | 0.998
14 | NCI-H1299 | 0.99 | 1.07 | 1.04 | 1.08 | – | – | – | – | – | – | – | – | – | – | 1.07 | 1.15 | 1.14 | 1.08 | 1.12 | 1.04
15 | NCI-H1563 | 0.955 | 1.04 | 0.969 | 0.967 | 0.694 | 0.79 | 0.766 | 0.762 | 0.75 | – | – | – | – | – | 0.822 | 1.05 | 0.999 | 1.03 | 0.993 | 0.939
16 | NCI-H1648 | 0.767 | – | 1.15 | 1.17 | – | 0.24 | 0.266 | 0.231 | 0.294 | 0.257 | 0.328 | 0.239 | 0.279 | 0.308 | – | – | – | – | – | 1.13
17 | NCI-H1703 | 0.616 | 0.257 | 0.315 | 0.242 | – | – | – | – | – | – | – | – | – | – | 0.333 | 0.25 | 0.284 | 0.306 | 0.254 | 0.216
18 | NCI-H1792 | 0.802 | 1.11 | 1.18 | 1.02 | 0.667 | 0.716 | 0.829 | 0.691 | 0.481 | 0.627 | 0.661 | 0.763 | 0.612 | 0.734 | – | – | – | – | – | 0.924
